No end group written: not given here.
Key:
Experiment in all cases: biochemical
Assay type in all cases: binding
[1] = molecular target: HLA-DR DRB1*0901 (DR9) (Homo sapiens, UniProt P01903+P01911, A100R/A103E/D57H/D86V/F55Y/F60I/F76Y/I96F/K127E/L162R/M171V/P40D/Q125H/Q99R/R33Q/R42F/S133A/S66N/T210M/V115G/W38K/Y107V/Y59G/Y89S); conditions: DRB1 *0901
[2] = molecular target: HLA-DR DRB1*1101 (DR11) (Homo sapiens, UniProt P01903+P01911, A100R/A169T/A87E/I96F/K41T/L162R/M171V/P40S/Q125H/Q178H/Q39Y/Q99D/R42S/S66Y/T262R/V115G/W38E); conditions: DRB1 *1101
HLA-DR DRB1*1101 (DR11), sequence (P01903 26-254 limits assumed, other chains not shown): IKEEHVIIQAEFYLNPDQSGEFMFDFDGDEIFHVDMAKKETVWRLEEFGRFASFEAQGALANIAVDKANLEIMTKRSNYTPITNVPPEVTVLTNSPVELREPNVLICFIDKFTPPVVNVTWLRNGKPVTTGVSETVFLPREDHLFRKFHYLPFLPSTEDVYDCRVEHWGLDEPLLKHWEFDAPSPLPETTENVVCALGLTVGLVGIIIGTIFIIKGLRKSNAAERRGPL

[3] = molecular target: HLA-DR DRB4*0101 (DR53) (Homo sapiens, UniProt P01903+P13762, G164S); conditions: DRB4 *0101
[4] = molecular target: HLA-DR DRB1*0301 (DR3) (Homo sapiens, UniProt P01903+P01911, A100K/A102G/A103R/A169T/F55Y/I96L/K41T/L162R/M171V/P40S/Q125H/Q178H/Q39Y/R42S/S66N/T106N/T262R/W38E/Y61H)
HLA-DR DRB1*0301 (DR3), sequence (P01903 26-254 limits assumed, other chains not shown): as above

[5] = molecular target: HLA-DR DRB5*0101 (DR51) (Homo sapiens, UniProt P01903+Q30154); conditions: DRB5 *0101
[6] = molecular target: HLA-DR DRB1*0802 (DR8) (Homo sapiens, UniProt P01903+P01911, A100R/A103L/A169T/F76Y/H45Y/I96F/K41T/L162R/M171V/P40S/Q125H/Q178H/Q39Y/Q99D/R218S/R42G/S66Y/V115G/W38E)
[7] = molecular target: HLA-DR DRB1*1302 (DR13) (Homo sapiens, UniProt P01903+P01911, A100E/A169T/K41T/L162R/M171V/P40S/Q125H/Q178H/Q39Y/Q99D/R42S/S66N/T262R/V115G/W38E/Y61H); conditions: DRBI *1302
HLA-DR DRB1*1302 (DR13), sequence (P01903 26-254 limits assumed, other chains not shown): as above

[8] = molecular target: HLA-DR DRB1*0701 (DR7) (Homo sapiens, UniProt P01903+P01911, A100R/A102G/A103Q/D57E/D86V/E43K/F76Y/K127E/L162R/M171V/P40G/Q125H/Q99D/R33Q/R42Y/R54Q/S133A/S66F/T210M/V115G/Y107V/Y59L/Y89S); conditions: DRB1 *0701
[9] = molecular target: HLA-DR DRB1*0401 (DR4) (Homo sapiens, UniProt P01903+P01911, A100K/A169T/F76Y/I96L/K127E/L162R/M171V/N62H/P40V/Q125Y/R42H/S133A/S149N/S66Y/V115G/V209L/W38E); conditions: DRB1 *0401
[10] = molecular target: HLA-DR DRB1*0101 (DR1) (Homo sapiens, UniProt P01903+P01911, A100R/D57E/F55L/F60I/F76Y/I96L/L162R/M171V/P40L/Q125E/R42F/V115G/Y59C); conditions: DRB1 *0101
[11] = molecular target: HLA-DR DRB3*0101 (DR52) (Homo sapiens, UniProt P01903+P79483)
[12] = molecular target: HLA-DR DRB1*1501 (DR15) (Homo sapiens, UniProt P01903+P01911); conditions: DRBI *1501

Row | Compound | IC50 [1] [nM] | IC50 [2] [nM] | IC50 [3] [nM] | IC50 [4] [nM] | IC50 [5] [nM] | IC50 [6] [nM] | IC50 [7] [nM] | IC50 [8] [nM] | IC50 [9] [nM] | IC50 [10] [nM] | IC50 [11] [nM] | IC50 [12] [nM]
1 | CC[C@H](C)[C@H](NC(=O)[C@H](Cc1ccccc1)NC(=O)[C@H](Cc1c[nH]c2ccccc12)NC(=O)CNC(=O)[C@H](Cc1ccccc1)NC(=O)[C@H](CC(C)C)NC(=O)[C@H](Cc1ccccc1)NC(=O)CNC(=O)[C@@H](N)CC(C)C)C(=O)N[C@@H](CCCCN)C(=O)N[C@@H](CO)C(=O)N[C@@H](CO)C(=O)N[C@@H](CC(N)=O)C(=O)N[C@@H](CCC(=O)O)C(=O)N[C@@H](C)C(=O)O | 1700 | 7300 | 9280 | > 75000 | 461 | 1420 | 10100 | 2260 | 1340 | 10 | 681 | –
2 | CC(C)C[C@H](NC(=O)[C@H](CCC(=O)O)NC(=O)[C@H](CCCCN)NC(=O)[C@H](C)NC(=O)[C@H](CC(C)C)NC(=O)[C@@H](NC(=O)[C@H](CO)NC(=O)[C@H](CCCNC(=N)N)NC(=O)[C@H](CC(=O)O)NC(=O)[C@H](CC(C)C)NC(=O)[C@H](Cc1c[nH]c2ccccc12)NC(=O)[C@H](Cc1ccccc1)NC(=O)[C@H](Cc1ccccc1)NC(=O)[C@H](CC(C)C)NC(=O)[C@@H](N)CC(C)C)C(C)C)C(=O)O | 518 | – | 7.5 | 6.3 | – | 163 | 24 | – | 2.6 | 2.9 | 86 | 34
3 | CC[C@H](C)[C@H](NC(=O)CNC(=O)[C@H](Cc1ccc(O)cc1)NC(=O)[C@H](CC(C)C)NC(=O)[C@H](CO)NC(=O)[C@H](CC(C)C)NC(=O)[C@H](CC(C)C)NC(=O)[C@H](CO)NC(=O)[C@@H](N)CC(C)C)C(=O)N[C@@H](Cc1c[nH]cn1)C(=O)N[C@@H](CCCCN)C(=O)N[C@@H](CCC(N)=O)C(=O)N[C@@H](CCCCN)C(=O)N[C@@H](CCC(=O)O)C(=O)N[C@@H](CCCCN)C(=O)O | 4960 | – | 772 | > 81800 | 3.4 | 1640 | > 35000 | > 35700 | 4440 | 656 | > 15000 | 58
4 | CSCC[C@H](NC(=O)CNC(=O)CNC(=O)[C@H](CCCNC(=N)N)NC(=O)[C@@H](NC(=O)[C@H](CCC(N)=O)NC(=O)[C@H](C)NC(=O)[C@@H](NC(=O)[C@@H](NC(=O)[C@H](CC(C)C)NC(=O)[C@H](Cc1c[nH]cn1)NC(=O)[C@H](Cc1ccc(O)cc1)NC(=O)[C@H](CCCCN)NC(=O)[C@H](Cc1ccccc1)NC(=O)[C@@H](N)CCSC)[C@@H](C)O)C(C)C)C(C)C)C(=O)O | 266 | – | – | 29000 | 5.8 | 70 | 1620 | 72 | 18 | 16 | 3650 | 1200
5 | CC[C@H](C)[C@H](NC(=O)[C@H](CCC(N)=O)NC(=O)[C@@H](N)CCCNC(=N)N)C(=O)N[C@@H](Cc1ccc(O)cc1)C(=O)N[C@H](C(=O)N[C@@H](C)C(=O)N[C@@H](C)C(=O)N[C@@H](Cc1ccccc1)C(=O)N[C@H](C(=O)N[C@H](C(=O)N[C@@H](CCC(N)=O)C(=O)N[C@@H](C)C(=O)N[C@@H](C)C(=O)N[C@@H](C)C(=O)N[C@@H](CCC(=O)O)C(=O)O)C(C)C)[C@@H](C)O)C(C)C | 91 | 35 | 47 | 28300 | – | 36 | 524 | – | 1.2 | 3.7 | 6810 | –
6 | CC[C@H](C)[C@H](NC(=O)[C@H](CCCNC(=N)N)NC(=O)[C@@H](N)[C@@H](C)O)C(=O)N[C@@H](Cc1ccc(O)cc1)C(=O)N[C@@H](CC(N)=O)C(=O)N[C@H](C(=O)N[C@H](C(=O)NCC(=O)N[C@H](C(=O)N[C@@H](CC(C)C)C(=O)N[C@@H](CCCNC(=N)N)C(=O)NCC(=O)N[C@@H](C)C(=O)N[C@H](C(=O)N[C@@H](CCC(=O)O)C(=O)O)C(C)C)[C@@H](C)O)[C@@H](C)CC)C(C)C | 2900 | 45 | 447 | 33300 | 32 | 70 | 1460 | 4810 | 6.3 | 14 | 17500 | –
7 | CC(C)C[C@H](NC(=O)[C@@H](NC(=O)[C@H](CCC(=O)O)NC(=O)[C@H](C)NC(=O)[C@H](C)NC(=O)[C@H](C)NC(=O)[C@H](CCC(N)=O)NC(=O)[C@@H](NC(=O)[C@@H](NC(=O)[C@H](Cc1ccccc1)NC(=O)[C@H](C)NC(=O)[C@H](C)NC(=O)[C@@H](N)C(C)C)[C@@H](C)O)C(C)C)[C@@H](C)O)C(=O)N[C@@H](CO)C(=O)N[C@@H](CCC(=O)O)C(=O)O | 127 | – | 464 | > 75000 | 378 | 1420 | – | 793 | 58 | 14 | 2120 | 18200
8 | CC[C@H](C)[C@H](NC(=O)[C@@H](NC(=O)[C@@H](N)CO)C(C)C)C(=O)N[C@@H](CC(C)C)C(=O)N[C@@H](CC(C)C)C(=O)NCC(=O)N[C@@H](CCCNC(=N)N)C(=O)N[C@@H](Cc1c[nH]cn1)C(=O)N[C@@H](CO)C(=O)N[C@@H](CC(C)C)C(=O)N[C@@H](Cc1ccccc1)C(=O)N[C@@H](Cc1c[nH]cn1)C(=O)N1CCC[C@H]1C(=O)N[C@@H](CCC(=O)O)C(=O)N[C@@H](CC(=O)O)C(=O)O [SVILLGRHSLFHPED] | 5220 | 96 | 4410 | 1400 | 16100 | 500 | 96 | – | 12600 | 717 | 13000 | –
9 | EDFFKLERDMKINCS | > 52300 | – | 7890 | 468 | 3490 | 1440 | 3190 | 8550 | 226 | 2710 | 4040 | > 3490
10 | GRLEYTLKDRRNFDI | > 77300 | 5000 | – | 30 | 796 | 4920 | – | 4960 | – | 7250 | 9900 | 168
11 | HPLYNMSLLKHQSLR | 199 | – | 8.4 | 13000 | 219 | 382 | 546 | 1280 | 499 | 232 | > 14900 | 472
12 | KLKLYTGEATRTGDR | > 78900 | – | 14800 | 118000 | – | 2010 | 841 | 8230 | 15 | 178 | 5300 | 18
13 | SNLELLRISLLLIQS | 3420 | 23700 | – | 43500 | 50100 | > 33300 | – | 642 | – | 72 | > 91900 | 59
14 | TSITSLYQLENYTG | 46300 | 1010 | 1660 | 96700 | 16100 | 14600 | > 17100 | 8370 | 1630 | – | 92300 | –
